Measured values as given in ChEMBL document CHEMBL3804772, “Enantioselective synthesis and antioxidant activity of 3,4,5-substituted piperidine derivatives” (Bioorg Med Chem Lett, 2016).

Assay: Antioxidant activity assessed as ABTS radical scavenging activity after 60 mins
Format: physicochemical

**Q.** With `CCOC(=O)[C@@H]1C(=O)N(Cc2ccccc2)C[C@@H](ON2C(C)(C)CCCC2(C)C)[C@H]1c1ccc(C)cc1` as the compound, how does the IC50 read?
**A.** Its IC50 is 98.4 µM.

**Q.** For `Cc1ccc([C@H]2[C@H](CO)CN(Cc3ccccc3)C[C@H]2ON2C(C)(C)CCCC2(C)C)cc1`, which IC50 is on record?
**A.** The IC50 was 0.09 µM.

**Q.** With `CCOC(=O)[C@@H]1C(=O)N(Cc2ccccc2)C[C@@H](O)[C@H]1c1ccccc1` as the compound, how does the IC50 read?
**A.** The IC50 was over 100 µM.

**Q.** For `CCOC(=O)[C@@H]1C(=O)N(Cc2ccccc2)C[C@@H](O)[C@H]1c1ccc(C)cc1`, which IC50 is on record?
**A.** The IC50 was over 100 µM.

**Q.** With `Cc1ccc([C@H]2[C@H](CO)CN(Cc3ccccc3)C[C@H]2O)cc1` as the compound, how does the IC50 read?
**A.** Its IC50 is 85.3 µM.

**Q.** Which IC50 does the source give for `OC[C@@H]1CN(Cc2ccccc2)CC[C@H]1c1ccccc1` here?
**A.** The IC50 was over 100 µM.

**Q.** Which IC50 does the source give for `OC[C@@H]1CN(Cc2ccccc2)C[C@@H](O)[C@H]1c1ccccc1` here?
**A.** Its IC50 is over 100 µM.

**Q.** With `CC1(C)CCCC(C)(C)N1O[C@@H]1CN(Cc2ccccc2)C[C@@H](CO)[C@@H]1c1ccc(F)cc1` as the compound, how does the IC50 read?
**A.** The IC50 was 0.095 µM.

**Q.** Which IC50 does the source give for `OC[C@@H]1CN(Cc2ccccc2)C[C@@H](O)[C@H]1c1ccc(F)cc1` here?
**A.** Its IC50 is 9.61 µM.

**Q.** For `CCOC(=O)[C@@H]1C(=O)N(Cc2ccccc2)C[C@@H](ON2C(C)(C)CCCC2(C)C)[C@H]1c1ccc(F)cc1`, which IC50 is on record?
**A.** The IC50 was 15.9 µM.

**Q.** With `CCOC(=O)[C@@H]1C(=O)N(Cc2ccccc2)C[C@@H](ON2C(C)(C)CCCC2(C)C)[C@H]1c1ccccc1` as the compound, how does the IC50 read?
**A.** The IC50 was 12.2 µM.

**Q.** Which IC50 does the source give for `CCOC(=O)[C@@H]1C(=O)N(Cc2ccccc2)CC[C@H]1c1ccccc1` here?
**A.** The IC50 was over 100 µM.

**Q.** Which IC50 does the source give for `CC(=O)OC[C@@H]1CN(Cc2ccccc2)C[C@@H](ON2C(C)(C)CCCC2(C)C)[C@H]1c1ccccc1` here?
**A.** The IC50 was 0.573 µM.

**Q.** With `CCOC(=O)[C@@H]1C(=O)N(Cc2ccccc2)C[C@@H](O)[C@H]1c1ccc(F)cc1` as the compound, how does the IC50 read?
**A.** The IC50 was over 100 µM.

**Q.** Which IC50 does the source give for `CC1(C)CCCC(C)(C)N1O[C@@H]1CN(Cc2ccccc2)C[C@@H](CO)[C@@H]1c1ccccc1` here?
**A.** Its IC50 is 0.093 µM.

**Q.** Which IC50 does the source give for `CC1(C)CCCC(C)(C)N1[O]` here?
**A.** Its IC50 is 0.026 µM.

**Q.** For `O=C1O[C@H]([C@@H](O)CO)C(O)=C1O` [ASCORBIC ACID], which IC50 is on record?
**A.** Its IC50 is 25.6 µM.

**Q.** With `O=c1c(O)c(-c2ccc(O)c(O)c2)oc2cc(O)cc(O)c12` [QUERCETIN] as the compound, how does the IC50 read?
**A.** Its IC50 is 5.57 µM.
